Source: US11013690B2, “Esterification/saponification-based method for liposomal encapsulation of hydrophilic glucuronides” (priority 2016, dated 2021)

How the values were obtained:
[1] = Pharmacokinetics of free vs liposomal 9AC-G in mice; type: in vivo, NOD/SCID mice; conditions: 25 mg/kg intravenously, 9AC-G in serum by HPLC
Protocol: FIG. 39 illustrates the pharmacokinetics in mice of free 9AC-G compared to liposomal 9AC-G. A dose of 25 mg/kg of either free 9AC-G or liposomal 9AC-G was injected intravenously by the tail of NOD/SCID mice. Blood samples were collected at different times and the concentration of 9AC-G was determined by HPLC. n=3, Error bars, SD.
This example relates to a test of whether the liposomal formulation of 9AC-G could display prolonged pharmacokinetics when compared to free 9AC-G. Free and liposomal 9AC-G were delivered intravenously at 25 mg/kg to 12 to 16 weeks old female mice. The total serum concentrations of 9AC-G were monitored by collecting blood samples in which the plasma was isolated from the red blood cells by centrifugation. The serum proteins were precipitated in acetonitrile:methanol:0.2 M trichloroacetic acid (2:2:1, vol:vol mixture). Samples were centrifuged to eliminate precipitated proteins and diluted in buffer containing 1% triton X-100 to lyse the liposomes and analyze 9AC-G quantities by HPLC.

[2] = tested on: HCC36 human hepatocellular carcinoma cells; experiment: Effect of human serum albumin on toxicity to HCC36 cells; type: cell-based; conditions: HCC36, human serum albumin 40 mg/mL, 24 hours, 3H-thymidine incorporation
Protocol: FIG. 35 illustrates the neutralizing effect of human serum albumin on free 9AC-G. Human hepatocellular carcinoma cells (HCC36) were exposed to free 9AC-G with or without human serum albumin (40 mg/mL) for 24 hours. Cell proliferation was observed by ^3H-thymidine incorporation assay. Human serum albumin inhibits the potency of free 9AC-G that is not loaded into liposomes. n=3, Error bars, SD.
FIG. 36 illustrates the inability of human serum albumin to neutralize 9AC-G after liposomal loading. Human hepatocellular carcinoma cells (HCC36) were exposed to liposomal 9AC-G with or without human serum albumin (40 mg/mL) for 24 hours. Cell proliferation was observed by ^3H-thymidine incorporation assay.
Anticancer activity of liposomes loaded with glucuronide-mE to encapsulate glucuronide can be assessed in-vitro or in-vivo. In an in-vitro assay, cancer cell lines can be seeded in wells or plates and various concentrations of liposomal glucuronide can be applied to the cells for a period of time, such as 24 hours, and cell killing can be assayed. Tritiated thymidine can be used to assay cell proliferation. […] Liposomal doxorubicin and liposomal 9AC-G toxicities were assessed with 3 human colon cancer cells (LS174T, HT29, and HCT16), 3 human lung cancer cells (CL1-5, NCI-H2170, and SK-MES-1) and 1 human breast cancer cells (MDA-MB-468). […]

human beta-glucuronidase = biological target: T1, human beta-glucuronidase (Homo sapiens, UniProt P08236); experiment: Regeneration of parental drug by beta-glucuronidase at pH 4.5; type: biochemical; conditions: pH 4.5 to mimic lysosomes
T1 sequence (P08236 23-651): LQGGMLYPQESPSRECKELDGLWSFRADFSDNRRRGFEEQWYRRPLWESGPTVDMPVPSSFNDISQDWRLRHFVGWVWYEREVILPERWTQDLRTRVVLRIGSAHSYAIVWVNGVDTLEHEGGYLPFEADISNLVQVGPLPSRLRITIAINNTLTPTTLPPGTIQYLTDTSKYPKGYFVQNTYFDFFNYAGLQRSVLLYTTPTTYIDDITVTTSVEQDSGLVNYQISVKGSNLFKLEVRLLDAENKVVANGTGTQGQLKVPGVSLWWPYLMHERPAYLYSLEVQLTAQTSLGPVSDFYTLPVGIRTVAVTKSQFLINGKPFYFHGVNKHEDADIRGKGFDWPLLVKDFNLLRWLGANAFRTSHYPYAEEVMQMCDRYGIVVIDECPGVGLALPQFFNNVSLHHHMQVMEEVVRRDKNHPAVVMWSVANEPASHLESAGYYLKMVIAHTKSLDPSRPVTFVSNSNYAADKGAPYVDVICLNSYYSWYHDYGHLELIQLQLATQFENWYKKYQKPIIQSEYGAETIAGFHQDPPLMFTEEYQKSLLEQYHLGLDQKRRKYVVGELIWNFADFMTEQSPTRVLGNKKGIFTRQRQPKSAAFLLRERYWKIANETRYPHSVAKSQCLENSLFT
Protocol: FIG. 28 illustrates the reversibility of the conjugation of the glucuronide residue to a parental compound. Here, 9AC was analyzed by HPLC before (1.) and after glucuronide conjugation (2.). […] 9AC-G incubated with human enzyme beta-glucuronidase at pH 4.5 to mimic the lysosomal conditions, could regenerate the original parental drug 9AC (5.). (RFU=relative fluorescent units)
In real conditions, it is extrapolated that liposomal glucuronides can be uptake by cells and that the liposomes can release the glucuronide inside lysosomes after degradation as illustrated in FIG. 29. Illustrations of compound regeneration are provided using 2 examples: 9AC-G (linked by self-immolative chemical linker that is removed upon enzyme hydrolysis, FIG. 30) and fluorescein (directly linked to glucuronide residues, FIG. 31). Effective amounts of 9AC were found in the medium of HCC36 and MDA-MB468 human cancer cells after addition of 9AC-G liposomes. On the other hand, when no cells were present, no 9AC was found, meaning that the regeneration of 9AC was dependent on the cells (FIG. 32). […] To further illustrate the parental compound regeneration ability, we incubated HCC36 cells engineered with LDL-R/anti PEG receptors with liposomal fluorescein-di-G (non-fluorescent). At early time, the liposomes (red) were taken up by the cells and started to colocalize with the lysosomes (magenta). […]

MDA-MB-468 tumors = experiment: In-vivo anti-tumor activity, MDA-MB-468 subcutaneous tumors; design: species or system NOD/SCID mice; conditions: i.v. weekly x4, free 9AC 2 mg/kg, free 9AC-G 10 mg/kg; for mice survival: 9AC-G liposomes 10 mg/kg
Source text: FIG. 41 illustrates the in-vivo anti-tumor activity of liposomal 9AC-G. NOD/SCID mice were inoculated subcutaneously with 10^7 MDA-MB-468 cells. When tumors reached 75 to 100 mm^3 the treatment started at one injection per week for a total of 4 treatments. Figure represents the tumor volume evolution. n=7, Error bars: SD. Differences in tumor sizes between groups were examined for statistical significance using one-way ANOVA followed by Dunnettt's multiple comparisons. Stars indicate significance; n.s=non-significant and p<0.0001 (***)
FIG. 42 illustrates the mice survival after treatment with 9AC, 9AC-G or 9AC-G liposomes. n=7, Error bars, SD
FIG. 44 illustrates the tumor growth of MDA-MB-468 human breast cancer cells (10^7 cells in 100 μL PBS) injected subcutaneously in twelve to sixteen-week old female NOD/SCID immunodeficient mice. When tumors reached sizes from 75 mm^3 to 100 mm^3, groups of 7 mice were treated at weekly intervals for four times with intravenous injections of 9AC-G (10 mg/kg) or doxorubicin liposomes (Doxisome®, 1 mg/kg). n=7, Error bars, SD. Differences in tumor sizes between groups were examined for statistical significance using one-way ANOVA followed by Dunnettt's multiple comparisons. Stars indicate significance; p<0.001 (**) and p<0.0001 (***)
Next, in an in-vive model of breast cancer in NOD/SCID mice, 10^7 MDA-MD468 cells were inoculated subcutaneously per mouse. The treatment was started when the tumors reached an average size of 75 to 100 mm^3. Mice were intravenously injected with 9AC-G liposomes at 10 mg/kg, free parental 9AC (2 mg/kg), or free 9AC-G (10 mg/kg). […] Appreciably, low toxicity was observed and the tumors were undetectable when treated with 9AC-G liposomes after 4 treatments for 6 over 7 mice, as shown in FIG. 41. […] We observed that the amount of activated parental drug 9AC was over 30 folds higher in the tumor than in the blood 24 hours after injection of 9AC-G liposomes (FIG. 43). This phenomenon is likely due to the enhanced permeability and retention effect (EPR) by which nanoparticles accumulate and are retained in tumor through leaky blood tumor vasculature.

[3] = pH stability of 9AC-GmE (HPLC); type: physicochemical
Protocol: FIG. 6 illustrates the stability of 9-aminocamptothecin glucuronide methylester (9AC-GmE) at acidic pH. 9AC-GmE stability was monitored over time at 75° C., at pH 5. Quantification was done by HPLC at excitation and emission of 370 and 460 nm, respectively. (Abbreviations: 9AC, 9-aminocamptothecin; 9AC-G, 9-aminocamptothecin glucuronide; 9AC-GmE, methylester form of 9AC-G). n=3. Error bars, SD.
FIG. 7 illustrates the conversion of 9-aminocamptothecin glucuronide methylester (9AC-GmE) to 9-aminocamptothecin glucuronide (9AC-G) at basic pH. 9AC-GmE conversion to 9AC-G was monitored over time at 75° C., at pH 8.5. Quantification was done by HPLC at excitation and emission of 370 and 460 nm, respectively. n=3. Error bars, SD.
The behavior of 9AC-GmE was investigated at different pH and temperatures.

[4] = Octanol-to-water partitioning assay; type: physicochemical; conditions: 1-octanol / citric acid pH 5, room temperature
Protocol: FIG. 4 illustrates the octanol to water distribution of glucuronides and glucuronide-mE. Glucuronides and glucuronide-mE were incubated overnight in immiscible aqueous and organic phases (citric acid pH 5 and 1-octanol) under gentle shaking at room temperature. Samples from each phase were analyzed to characterize the distribution of the compounds. n=3-5
FIG. 5 illustrates the Log P of glucuronides and glucuronide-mE compounds in each phase of 1-octanol and citric acid pH 5 following the formula: log Poctanol/water=log ([solute]octanol/[solute]water). n=3-5. Error bars, SD
9-aminocamptothecin glucuronide (9AC-G), 5,6-dihydro-4H-benzo[de]quinoline-camptothecin-β-D-glucuronide (BQC-G) and 4-methylumbelliferyl-β-D-glucuronide (4MU-G) can be incubated in methanol in the presence of a strong acid (sulfuric acid) as a catalyzer (FIG. 2).
Distribution of the different compounds were measured by dilution in a 1:1 volume of octanol and 100 mM citric acid buffer at pH 5 (FIG. 4). The solutions were gently stirred for 24 hours at room temperature, spun down at 2,500×g and glucuronides or glucuronide-mE in each phase was quantified by HPLC and the partition coefficients were calculated as log Poctanol/water=log ([solute]octanol/[solute]water) ([…]).

Compound	mice survival (MDA-MB-468 tumors)	effect on tumor growth (MDA-MB-468 tumors)	partition versus corresponding glucuronide [4]	other results
9-aminocamptothecin glucuronide [9AC-G]	not	little effect on the tumor growth	–	initial half-life [1]: 9.3 min; terminal half-life [1]: 38.6 min; effect of human serum albumin on toxicity [2]: toxicity is suppressed; conversion to parental drug by beta-glucuronidase (human beta-glucuronidase): completely converted to 9AC
9-aminocamptothecin glucuronide methylester [9AC-GmE]	–	–	increased partition into an organic phase	stability of methylester group at basic pH (saponification to 9AC-G) ([3]; basic pH (8.5), 75° C.): easily is hydrolyzed; stability at acidic pH ([3]; pH 5, 75° C.): very stable
COC(=O)C1OC(Oc2ccc3c(C)cc(=O)oc3c2)C(O)C(O)C1O (stereo not drawn) [4MU-GmE]	–	–	increased partition into an organic phase	–
CC[C@@]1(O)C(=O)OCc2c1cc1n(c2=O)Cc2cc3c(N)cccc3nc2-1 [9AC, 9-aminocamptothecin, reference compound]	not	little effect on the tumor growth	–	–
